Measured values: patent publication US10648038B2, “Biomarkers to identify patients that will respond to treatment and treating such patients” (Acetylon Pharmaceuticals, Inc., priority 2012, dated 2020)

Test system: 65 cancer cell lines
Assay: Cell viability screening of a panel of 65 cancer cell lines, association with cancer type and gene mutation
Format: cell-based, human
Protocol: 65 cancer cell lines (including 12 of breast cancer, 11 of hematologic cancer, 9 of colorectal cancer, 6 of lung cancer, 6 of skin cancer, 4 brain cancer, 3 of renal cancer, 3 of liver cancer, 3 of prostate cancer, 3 of pancreatic cancer, 3 of ovarian cancer, and 2 of stomach cancer) were selected for analysis. Each of the cell lines was cultured and treated with the HDAC6 inhibitor, Compound A, with or without the proteasome inhibitor, bortezomib, before their cell viabilities were measured at the end of treatments. The sensitivities of the cell lines were described using the concentration of Compound A that provides 50% inhibition of cell viabilities (IC50). In all analyses, the logarithm of drug sensitivity values (i.e., Log [IC50]) was used, which is more normally distributed than the raw IC50 values. This is because most standard statistical tests (e.g., t-test and correlation analysis) assume the normal distribution of data points.
For the association tests of gene mutations, 50 common oncogene/tumor suppressor genes were selected to analyze the results. Mutation profiles of the cell lines were downloaded from the Sanger COSMIC DB on the Internet: www dot sanger dot ac dot uk/cosmic. For each gene locus, the “Fisher's Exact Test” was used to calculate statistical significance (p<0.05) of association between the genotype and the cell sensitivities to the treatments.

[1] = most cell lines of the panel, agent alone

SMILES | sensitivity of cell lines to treatment (cell viability) (a number of lymphoma and leukemia cell lines, single agent) | sensitivity of cell lines to treatment (cell viability) (breast cancer cell lines with Her2 protein overexpression (ERBB2 amplification), Fisher's Exact Test p<0.05) | sensitivity of cell lines to treatment (cell viability) (breast cancer cell lines, basal-type or triple negative, Fisher's Exact Test p<0.05) | sensitivity of cell lines to treatment (cell viability) (cell lines for hematologic malignant cancer, Compound A alone) | sensitivity of cell lines to treatment (cell viability) (lymphoma cells, compared with other cell groups of the 65 lines) | sensitivity of cell lines to treatment (cell viability) [1]
O=C(CCCCCCNC(=O)c1cnc(N(c2ccccc2)c2ccccc2)nc1)NO [Compound A, 2-(diphenylamino)-N-(7-(hydroxyamino)-7-oxoheptyl)pyrimidine-5-carboxamide] | substantial sensitivity | sensitive | resistant | most sensitive | most sensitive | resistant
CC(C)C[C@H](NC(=O)[C@H](Cc1ccccc1)NC(=O)c1cnccn1)B(O)O [bortezomib, reference compound] |  |  |  |  |  | resistant
